In general, Kd refers to the constant that tells how readily two partners part at equilibrium.

These results are taken from PubChem BioAssay AID1552 (Sanford-Burnham Center for Chemical Genomics, 2009).

The target in this assay is Ubiquitin-conjugating enzyme E2 N (Homo sapiens) (UniProt P61088). Nature of the assay: UBE2N binders by NMR, biophysical, purified protein (AID 1552). The note with it: NMR binding to purified UBE2N.

Molecules are shown by their SMILES. Activity calls are given as the source filed them. How the calls were made is not given here.

Sequence of Ubiquitin-conjugating enzyme E2 N (Homo sapiens) (P61088 whole entry, looked up): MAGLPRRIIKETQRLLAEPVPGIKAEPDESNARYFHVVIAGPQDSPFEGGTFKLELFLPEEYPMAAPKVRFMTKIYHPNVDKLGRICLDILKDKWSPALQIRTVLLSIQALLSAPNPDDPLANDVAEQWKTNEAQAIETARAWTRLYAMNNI

For `Cc1ccc(-c2cc(C(=O)N3CCCC3)no2)cc1`, the Kd was > 4 mM (inactive). Take `COc1ccc(-c2coc3c(OC)c(OC)cc(O)c3c2=O)cc1`: the Kd is > 4 mM (inactive). The figure for `NCc1ccc(S(N)(=O)=O)cc1` is > 4 mM (inactive); for `CC(C)n1c(-c2ccncc2)n[nH]c1=S` it is > 4 mM (inactive); for `CCOC(=O)c1c(C)cc(O)cc1O` it is > 4 mM (inactive).

Take `CCOc1ccc(C)cc1S(=O)(=O)n1ccnc1`: the Kd is > 4 mM (inactive). The figure for `CC(=O)Nc1cnn(-c2ccccc2)c(=O)c1Cl` is > 4 mM (inactive). For `Cc1cc(=O)n(CC(C)C)c(O)c1C#N`, the Kd was > 4 mM (inactive). With `Cc1n[nH]c(C)c1CC(=O)O`, the Kd is > 4 mM (inactive).

Consider `c1ccc(-c2noc(-c3ccco3)n2)nc1`, for which the Kd is > 4 mM (inactive). `Cc1ncc(CC(=O)O)s1`: the Kd is > 4 mM (inactive). The same measure for `CCNC(CC(=O)Nc1ccc(O)cc1)C(=O)O` (configuration not stated): > 4 mM (inactive); for `CCC(=O)Nc1cc(C(C)C)c(O)cc1C`: > 4 mM (inactive); for `N#Cc1cc(-c2ccccc2)oc1N`: > 4 mM (inactive).

`CC(=O)Nc1ccccc1-c1ccccc1NC(C)=O`: the Kd was > 4 mM (inactive).

As for `COc1ccc2c(c1)[n+](=O)c(C(C)=O)c(C)n2[O-]`, the Kd was > 4 mM (inactive). On to `Cc1ccc(C(=O)N2CCC(C(N)=O)CC2)cc1C`, for which the Kd was > 4 mM (inactive).

`O=C(Nc1ccc2c(c1)CCC2)c1cnccn1`: the Kd was > 4 mM (inactive).

As for `CNC(=O)c1cc(C)c(-c2ccccc2)s1`, the Kd is > 4 mM (inactive). For the compound `COc1ccc2c(C)cc(=O)oc2c1`, the Kd is > 4 mM (inactive). The same measure for `CCC(=O)Nc1cccc(NC(C)=O)c1`: > 4 mM (inactive). The same measure for `Cc1cc(C)n2nc(-c3cccnc3)nc2n1`: > 4 mM (inactive); for `COc1ccc(S(N)(=O)=O)cc1`: > 4 mM (inactive). The figure for `CC(=O)Nc1nnc(-c2ccccc2)o1` is > 4 mM (inactive); for `CCCc1nc2ccccc2c2nc(N)nn12` it is > 4 mM (inactive).

With `Cc1cc(C(=O)NC2=NCCS2)cs1`, the Kd is > 4 mM (inactive). The same measure for `COc1ccc(S(=O)(=O)N2CCOCC2)cc1C(C)C`: > 4 mM (inactive); for `C=C[C@@](C)(O)CCC1C(=C)CCC2[C@@](C)(CO)CCC[C@]12C` (some centres not stated): > 4 mM (inactive).

Regarding `O=C(O)c1onc2ccccc12`, the Kd is > 4 mM (inactive). The figure for `CC1(C)CC2(C)N(N)C(=O)CN2C(=S)N1` (configuration not stated) is > 4 mM (inactive). The same measure for `CSc1n[nH]c(NCc2cccs2)n1`: > 4 mM (inactive); for `CSc1ccccc1NC(=O)c1c(C)noc1C`: > 4 mM (inactive).

In the case of `COc1ccc(-c2cc(=O)c3c(O)cc(O)c(-c4cc(-c5cc(=O)c6c(O)cc(O)cc6o5)ccc4OC)c3o2)cc1`, the Kd is > 4 mM (inactive). As to `Cn1cnc([N+](=O)[O-])c1Sc1ncnc2nc[nH]c12`, the Kd was > 4 mM (inactive). On to `CC(=O)c1cccc(N=C2NC(=O)CS2)c1`, for which the Kd was > 4 mM (inactive). On to `CCCCCCCCCCCC[C@H](C(=O)O)[C@@H](C)C(=O)O`, for which the Kd is > 4 mM (inactive). The figure for `CCOC(=O)c1c(C)nc2cc(C)ccn12` is > 4 mM (inactive). The figure for `CN(C)c1nc(N2CCOCC2)nc(N2CCOCC2)n1` is > 4 mM (inactive); for `Cc1ccc(CCC(N)=O)o1` it is > 4 mM (inactive); for `CCSc1nc2ccccc2[nH]1` it is > 4 mM (inactive). The same measure for `Nc1cc(C(=O)N2CCCC2)cc(C(=O)N2CCCC2)c1`: > 4 mM (inactive); for `Fc1ccc(NC2=NCCS2)cc1Cl`: > 4 mM (inactive); for `O=C(Nn1cnnc1)c1cccc(C(F)(F)F)c1`: > 4 mM (inactive). As to `CC(C)(C)c1cc(CN)c(C(=O)O)o1`, the Kd is > 4 mM (inactive). The same measure for `Nc1cccc(S(N)(=O)=O)c1`: > 4 mM (inactive); for `CC(=O)c1csc(-c2cc(C)on2)n1`: > 4 mM (inactive).

As for `Nc1ccccc1C(=O)CC(N)C(=O)O` (configuration not stated), the Kd was > 4 mM (inactive). The figure for `O=C1C2CC=CCC2C(=O)N1c1cccc(O)c1` (configuration not stated) is > 4 mM (inactive); for `O=C(O)c1cn(-c2ccccc2)nc1-c1ccncc1` it is > 4 mM (inactive); for `C(=N\n1cnnc1)/c1cccs1` it is > 4 mM (inactive). The figure for `CC(=O)Nc1ccc(NC2SC(=O)NC2=O)cc1` (configuration not stated) is > 4 mM (inactive); for `Cc1cc(NC(=O)c2ocnc2C)no1` it is > 4 mM (inactive). The figure for `CC(=O)Nc1ccc(NC(=O)N2CCOCC2)cc1` is > 4 mM (inactive); for `Cc1nnc(SCc2ccccc2)[nH]c1=O` it is > 4 mM (inactive); for `N/C(=N/O)C1COc2ccccc2O1` (configuration not stated) it is > 4 mM (inactive). As for `Cc1ccccc1NC(=O)CC1NCCNC1=O` (configuration not stated), the Kd was > 4 mM (inactive).

`CC(C)NC(=O)c1cc(=O)n(C)c(=O)n1C`: the Kd was > 4 mM (inactive). In the case of `NCc1ccc2c(c1)OCCCO2`, the Kd is > 4 mM (inactive).

Take `Nc1cccc(S(=O)(=O)N2CCOCC2)c1`: the Kd is > 4 mM (inactive). The figure for `O=S1(=O)CCC(NC(=S)N2CCCCC2)C1` (configuration not stated) is > 4 mM (inactive). The same measure for `C[C@]12CC(=O)C3C(CC[C@@H]4C[C@H](O)CC[C@]34C)C1CC[C@]2(O)C(=O)CO` (some centres not stated): > 4 mM (inactive). For `COC(=O)CCSCC(=O)Nc1nccs1`, the Kd is > 4 mM (inactive). The figure for `CCc1noc(C)c1C(=O)Nc1ncc(C)s1` is > 4 mM (inactive); for `C=C1C(=O)O[C@@H]2C[C@@]3(C)CCC[C@H](C)C3=C[C@H]12` it is > 4 mM (inactive). With `O=C(Cc1cccs1)Nc1nncs1`, the Kd was > 4 mM (inactive). For the compound `NCc1ccc(-c2ccccn2)s1`, the Kd was > 4 mM (inactive). The figure for `CC1(C)C2CC[C@]3(C)C(C(=O)C=C4[C@@H]5C[C@@](C)(C(=O)O)CC[C@]5(C)CC[C@]43C)[C@@]2(C)CC[C@@H]1O` (some centres not stated) is > 4 mM (inactive); for `COc1ccccc1CNc1nc2nc(C)cc(=O)n2[nH]1` it is > 4 mM (inactive); for `CCC(=O)NC(=S)Nc1ccc(N2CCOCC2)cc1` it is > 4 mM (inactive).

Turning to `O=C(Nc1nccs1)c1ccc(=O)[nH]n1`, the Kd is > 4 mM (inactive). The figure for `CCNC(=S)N1CCC(C(N)=O)CC1` is > 4 mM (inactive); for `O=C1CS/C(=N/N=C/c2cccs2)N1` it is > 4 mM (inactive); for `O=C(NC1=NCCS1)c1ccc([N+](=O)[O-])cc1Cl` it is > 4 mM (inactive).

On to `O=C(O)/C=C/C=C/c1ccccc1`, for which the Kd was > 4 mM (inactive). The same measure for `O=C(CN1CCOCC1)Nc1cccc(Br)c1`: > 4 mM (inactive); for `Cc1ccccc1CSc1nnc(C)n1N`: > 4 mM (inactive).

Regarding `O=C1CSC(=Nc2ccc(Cl)cc2)N1`, the Kd is > 4 mM (inactive).

Turning to `O=C(c1cc(-c2ccccc2)on1)N1CCCC1`, the Kd was > 4 mM (inactive). The figure for `CC(C)Nc1nc2n(c(=O)n1)CCN2C(C)C` is > 4 mM (inactive). The same measure for `CC1(C)CC2C1CCC1(C)OC1CCC2(C)O` (configuration not stated): > 4 mM (inactive); for `CC(=O)c1nnc2cc(C)nn2c1C`: > 4 mM (inactive). The figure for `O=S(=O)(O)c1cc[n+]([O-])cc1` is > 4 mM (inactive); for `O=S(=O)(Nc1cccc2cn[nH]c12)c1ccc(F)cc1` it is > 4 mM (inactive). As to `CCCNC(CC(=O)Nc1cccnc1)C(=O)O` (configuration not stated), the Kd is > 4 mM (inactive). The figure for `N#Cc1cc2c(nc1SCc1ccncc1)CCC2` is > 4 mM (inactive); for `CC(=O)O[C@@H]1CC2C(C)(C)C(=O)C3OC3[C@]2(C)C2CC[C@@]3(C)[C@H](c4ccoc4)OC(=O)C4OC43[C@@]21C` (some centres not stated) it is > 4 mM (inactive); for `NN1C(=O)CSC1=Nc1ccccc1` it is > 4 mM (inactive). The same measure for `COc1cc(C(C)=O)ccc1OC(=O)N1CCOCC1`: > 4 mM (inactive). The same measure for `Cc1nnsc1C(=O)Nc1ccc(C(N)=O)cc1`: > 4 mM (inactive); for `O=C(O)CN1CCNCC1`: > 4 mM (inactive). As for `CC(=O)c1cccc(NC(=O)C=C(C)C)c1`, the Kd was > 4 mM (inactive). The figure for `COc1ccc(C(=O)NNC(=S)NC(C)=O)cc1` is > 4 mM (inactive). The figure for `O=C(Cc1cccs1)Nc1ccon1` is > 4 mM (inactive); for `COCc1cc(Cl)nc(-c2csc(C)n2)n1` it is > 4 mM (inactive); for `CC1(C)Cc2cccc(C(=O)O)c2O1` it is > 4 mM (inactive). For the compound `O=C1CCc2ccccc2CN1`, the Kd is > 4 mM (inactive). Take `COc1c(CC=C(C)C)c2c(c3oc(=O)c(-c4ccc(O)cc4)c(O)c13)C=CC(C)(C)O2`: the Kd was > 4 mM (inactive).

Turning to `Cn1ccnc1C(O)c1ccccc1` (configuration not stated), the Kd was > 4 mM (inactive). The figure for `O=C1CNC(=O)/C1=C/c1ccc(O)cc1` is > 4 mM (inactive); for `Cc1cc(=O)oc2cc(O)c(O)cc12` it is > 4 mM (inactive). The same measure for `O=C1CC(c2c[nH]c3ccccc23)C(=O)N1` (configuration not stated): > 4 mM (inactive). The same measure for `O=C(Nc1ccc2c(c1)OCO2)c1cccc(F)c1`: > 4 mM (inactive). `CC1=C(C(N)=O)C(c2cccs2)C(C(N)=O)=C(C)N1`: the Kd was > 4 mM (inactive). The figure for `Nc1ccc2[nH]ccc2c1` is > 4 mM (inactive). The same measure for `O=C(Nc1ccon1)c1cccc(C(F)(F)F)c1`: > 4 mM (inactive). The same measure for `Nc1nc2ccc(N3CCOCC3)cc2s1`: > 4 mM (inactive); for `O=C(CSc1nnc2ccccn12)N1CCOCC1`: > 4 mM (inactive).
